Values quoted from earlier work as cited in publication PMC4854401, “Biochemical Mechanisms for Geographical Adaptations to Novel Toxin Exposures in Butterflyfish” (PLoS ONE, 2016).

Tested on: CYP activity
Design: method as in PMID 24272422
Details: black swallowtails (Papilio polyxenes), dose-dependent; cited from earlier work

COc1c2occc2cc2ccc(=O)oc12 [xanthotoxin]
induced CYP activity, increase: seven fold
